Data as given in patent US20260297060A1, “COMPOUNDS FOR THE DEGRADATION OF MUTANT BRAF” (C4 THERAPEUTICS, INC., priority 2023, published 2026).
Where two headings read alike, the source gives them in different places.

What was measured:
A375-NRAS^Q61K cells = assay: CTGlo Cell Viability Assay, A375-NRAS^Q61K (A375.11) cells, 96 hours; assay type: cell-based, human; conditions: A375.11 (A375-NRAS^Q61K) cells; for Emax / CTGlo A375.11 96 hours Emax: lowest % viability achieved
Outline: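 Viability as CellTiter-Glo ATP luminescence after 96 h compound exposure at 37 °C; A375.11 (BRAF V600E/NRAS Q61K) cells at 250/well, top final concentration 10 μM in half-log steps. Signal was background-corrected and set relative to DMSO controls. A 4-parameter logistic fit gave GI50 (50% crossing) and Emax.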

BRAF V600E = target: T1, BRAF V600E (Homo sapiens, UniProt P15056+Q96SW2, V600E); assay: BRAF V600E HiBiT Degradation Assay; assay type: cell-based
T1 construct: knock-in of the HiBiT tag to the endogenous BRAF V600E locus; host or cells: A375.10 (A375 clonal line, CRISPR HiBiT knock-in at the endogenous BRAF V600E locus)
Outline: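 Endogenous HiBiT knock-in on BRAF V600E in A375 cells (clone A375.10); 11-point half-log series, top 10 μM, 2, 6 or 24 h at 37° C. Lytic HiBiT luminescence, background-subtracted, normalized to DMSO; 4-parameter fit gives DC50, Emax (residual protein) and IP (inflection point).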

[1] = A375.10 cells, BRAF V600E, 2 hours, residual protein remaining, read-out: HiBiT-Degradation A375.10 BRAF 2 hours Emax
[2] = read-out: HiBiT-Degradation A375.10 BRAF 2 hours DC50, A375.10 cells, BRAF V600E, 2 hours
[3] = read-out: HiBiT-Degradation A375.10 BRAF 2 hours IP, A375.10 cells, BRAF V600E, 2 hours, inflection point
[4] = A375.10 cells, BRAF V600E, 2 hours, inflection point, read-out: HiBiT-Degradation A375.10 BRAF 2 hours IP
[5] = A375.10 cells, BRAF V600E, 2 hours, read-out: HiBiT-Degradation A375.10 BRAF 2 hours DC50
[6] = A375.10 cells, BRAF V600E, 2 hours, residual protein remaining

T1 sequence (P15056 whole entry V600E): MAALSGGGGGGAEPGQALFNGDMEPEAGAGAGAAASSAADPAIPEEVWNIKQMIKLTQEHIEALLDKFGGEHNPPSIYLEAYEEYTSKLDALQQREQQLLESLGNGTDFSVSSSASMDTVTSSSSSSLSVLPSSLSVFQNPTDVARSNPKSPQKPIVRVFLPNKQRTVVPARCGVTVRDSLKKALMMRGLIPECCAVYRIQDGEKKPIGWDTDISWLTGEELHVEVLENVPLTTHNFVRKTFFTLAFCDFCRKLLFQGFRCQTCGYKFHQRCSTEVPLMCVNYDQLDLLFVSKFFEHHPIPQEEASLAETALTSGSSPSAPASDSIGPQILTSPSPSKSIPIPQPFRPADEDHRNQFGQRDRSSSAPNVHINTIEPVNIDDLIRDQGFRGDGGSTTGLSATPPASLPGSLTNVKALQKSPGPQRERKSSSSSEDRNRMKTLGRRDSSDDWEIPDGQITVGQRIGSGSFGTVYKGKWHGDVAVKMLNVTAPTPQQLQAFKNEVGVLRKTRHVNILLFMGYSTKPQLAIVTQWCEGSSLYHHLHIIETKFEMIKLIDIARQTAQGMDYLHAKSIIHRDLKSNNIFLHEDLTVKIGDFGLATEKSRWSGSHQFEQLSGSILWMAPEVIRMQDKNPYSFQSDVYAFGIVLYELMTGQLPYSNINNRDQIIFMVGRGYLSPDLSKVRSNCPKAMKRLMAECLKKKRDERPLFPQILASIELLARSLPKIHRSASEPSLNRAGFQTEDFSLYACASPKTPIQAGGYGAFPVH
T1 sequence (Q96SW2 whole entry): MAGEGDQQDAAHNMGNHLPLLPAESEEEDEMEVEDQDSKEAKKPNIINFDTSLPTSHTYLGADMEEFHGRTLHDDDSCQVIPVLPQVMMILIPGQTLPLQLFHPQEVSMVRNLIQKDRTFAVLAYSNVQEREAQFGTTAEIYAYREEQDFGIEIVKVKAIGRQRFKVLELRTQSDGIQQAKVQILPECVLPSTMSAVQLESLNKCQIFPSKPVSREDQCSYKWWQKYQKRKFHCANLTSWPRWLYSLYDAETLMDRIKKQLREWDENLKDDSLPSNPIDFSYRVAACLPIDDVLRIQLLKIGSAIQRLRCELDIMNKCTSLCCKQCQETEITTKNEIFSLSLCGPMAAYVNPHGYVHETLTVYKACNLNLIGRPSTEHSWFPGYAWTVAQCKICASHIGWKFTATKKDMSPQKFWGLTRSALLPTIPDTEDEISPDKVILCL
T1 sequence (Q16531 whole entry partner): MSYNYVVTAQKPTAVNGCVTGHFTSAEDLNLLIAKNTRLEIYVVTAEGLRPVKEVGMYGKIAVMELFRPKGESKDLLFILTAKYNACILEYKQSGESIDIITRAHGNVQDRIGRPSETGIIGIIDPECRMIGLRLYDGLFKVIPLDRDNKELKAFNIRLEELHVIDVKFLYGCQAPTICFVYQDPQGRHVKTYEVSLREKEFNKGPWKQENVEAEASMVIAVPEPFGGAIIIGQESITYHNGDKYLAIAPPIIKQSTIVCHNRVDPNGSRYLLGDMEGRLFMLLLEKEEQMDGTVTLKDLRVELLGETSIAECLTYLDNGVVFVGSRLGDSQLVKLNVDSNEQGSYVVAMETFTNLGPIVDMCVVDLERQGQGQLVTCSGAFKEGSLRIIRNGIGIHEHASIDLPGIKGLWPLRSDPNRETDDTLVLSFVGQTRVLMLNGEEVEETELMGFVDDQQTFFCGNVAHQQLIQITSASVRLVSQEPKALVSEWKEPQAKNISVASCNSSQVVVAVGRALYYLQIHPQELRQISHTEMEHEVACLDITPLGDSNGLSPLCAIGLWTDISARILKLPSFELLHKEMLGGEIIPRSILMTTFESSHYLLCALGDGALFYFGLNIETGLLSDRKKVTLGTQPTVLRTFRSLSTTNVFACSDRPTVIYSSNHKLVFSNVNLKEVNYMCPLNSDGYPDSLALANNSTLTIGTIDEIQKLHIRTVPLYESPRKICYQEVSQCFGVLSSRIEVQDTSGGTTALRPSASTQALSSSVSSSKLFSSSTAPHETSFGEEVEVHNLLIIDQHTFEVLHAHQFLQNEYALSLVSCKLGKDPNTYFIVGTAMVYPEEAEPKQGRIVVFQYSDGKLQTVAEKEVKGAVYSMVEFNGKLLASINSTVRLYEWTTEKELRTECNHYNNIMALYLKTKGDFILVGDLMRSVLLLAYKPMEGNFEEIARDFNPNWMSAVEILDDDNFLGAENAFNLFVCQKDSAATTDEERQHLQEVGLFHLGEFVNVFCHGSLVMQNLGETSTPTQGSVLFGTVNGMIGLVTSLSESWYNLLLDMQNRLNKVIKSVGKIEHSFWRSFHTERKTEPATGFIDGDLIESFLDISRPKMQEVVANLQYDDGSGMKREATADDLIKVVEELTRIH

Row | Structure (SMILES) | GI50 (A375-NRAS^Q61K cells; Homo sapiens, 96 h) | Emax (A375-NRAS^Q61K cells; Homo sapiens, 96 h) | Emax (BRAF V600E; [1]) | DC50 (BRAF V600E; [2]) | DC50 (BRAF V600E; [3]) | GI50 (A375-NRAS^Q61K cells) | DC50 (BRAF V600E; [4]) | DC50 (BRAF V600E; [5]) | HiBiT-Degradation A375.10 BRAF 2 hours Emax (BRAF V600E; [6]) | other results
1 | CO[C@H]1CCN(S(=O)(=O)Nc2ccc(F)c(Oc3ccc4ncc(C5CC6(CCN(C7CC8(C7)CN(c7cc9c(cc7F)c(N7CCC(=O)NC7=O)nn9C)C8)CC6)C5)nc4c3)c2C#N)C1 (stereo partly drawn) [Compound 279, (3S)-N-[2-cyano-3-[3-[7-[2-[3-(2,4-dioxohexahydropyrimidin-1-yl)-5-fluoro-1-methyl-indazol-6-yl]-2-azaspiro[3.3]heptan-6-yl]-7-azaspiro[3.5]nonan-2-yl]quinoxalin-6-yl]oxy-4-fluoro-phenyl]-3-methoxy-pyrrolidine-1-sulfonamide] | > 10000 nM | 50 to 90% | 50 to 90% | < 1000 nM | < 1000 nM | – | – | – | – | –
2 | Cn1nc(N2CCC(=O)NC2=O)c2cc(F)c(N3CC4(CC(N5CCC6(CC5)CC(c5cnc7ccc(Oc8c(F)ccc(NS(=O)(=O)C9CCCC9)c8C#N)cc7n5)C6)C4)C3)cc21 [Compound 283, N-[2-cyano-3-[3-[7-[2-[3-(2,4-dioxohexahydropyrimidin-1-yl)-5-fluoro-1-methyl-indazol-6-yl]-2-azaspiro[3.3]heptan-6-yl]-7-azaspiro[3.5]nonan-2-yl]quinoxalin-6-yl]oxy-4-fluoro-phenyl]cyclopentanesulfonamide] | < 1000 nM | 50 to 90% | < 50% | < 1000 nM | < 1000 nM | – | – | – | – | –
3 | CCN(C)S(=O)(=O)Nc1ccc(F)c(Nc2ccc3ncn([C@H]4COC5(CCN(C6CCC(c7ccc(NC8CCC(=O)NC8=O)cc7F)CC6)CC5)C4)c(=O)c3c2)c1C#N (single isomer, unassigned) [Compound 56] | – | 50 to 90% | < 50% | – | – | > 10000 nM | < 1000 nM | < 1000 nM | – | –
4 | CN(CCO)S(=O)(=O)Nc1ccc(F)c(Oc2ccc3ncc([C@@H]4COC5(CCN(C6CCC(c7cc8c(cc7F)c(N7CCC(=O)NC7=O)nn8C)CC6F)CC5)C4)nc3c2)c1C#N (single isomer, unassigned) [Compound 172] | 1000 to 10000 nM | 50 to 90% | 50 to 90% | – | – | – | < 1000 nM | > 10000 nM | – | –
5 | CCN(C)S(=O)(=O)Nc1ccc(F)c(C(=O)c2ccc3ncn(C4CC5(CCN(C6CCC(c7ccc(NC8CCC(=O)NC8=O)cc7F)CC6)CC5)C4)c(=O)c3c2)c1F (single isomer, unassigned) [Compound 200, 3-[7-[4-[4-[(2,6-dioxo-3-piperidyl)amino]-2-fluoro-phenyl]cyclohexyl]-7-azaspiro[3.5]nonan-2-yl]-6-[3-[[ethyl(methyl)sulfamoyl]amino]-2,6-difluoro-benzoyl]-4-oxo-quinazoline] | – | – | – | – | – | 1000 to 10000 nM | < 1000 nM | < 1000 nM | *** (<=50%) | CTGlo A375.11 96 hours Emax (A375-NRAS^Q61K cells): ** (<90% and >50%)
6 | CCN(C)S(=O)(=O)Nc1ccc(F)c(C(=O)c2ccc3ncn(C4CC5(CCN(C6CCC(c7ccc(NC8CCC(=O)NC8=O)cc7F)CC6)CC5)C4)c(=O)c3c2)c1F (single isomer, unassigned) [Compound 199, 3-[7-[4-[4-[(2,6-dioxo-3-piperidyl)amino]-2-fluoro-phenyl]cyclohexyl]-7-azaspiro[3.5]nonan-2-yl]-6-[3-[[ethyl(methyl)sulfamoyl]amino]-2,6-difluoro-benzoyl]-4-oxo-quinazoline] | 1000 to 10000 nM | 50 to 90% | < 50% | – | – | – | < 1000 nM | < 1000 nM | – | –
7 | CO[C@H]1CCN(S(=O)(=O)Nc2ccc(F)c(Oc3ccc4ncc(C5CC6(CCN(C7CCC(c8cc9c(cc8F)c(N8CCC(=O)NC8=O)nn9C)CC7)CC6)C5)nc4c3)c2C#N)C1 (single isomer, unassigned) [Compound 276] | – | – | – | < 1000 nM | – | 1000 to 10000 nM | – | – | ** (<90% and >50%) | CTGlo A375.11 96 hours Emax (A375-NRAS^Q61K cells): ** (<90% and >50%); HiBiT-Degradation A375.10 BRAF 2 hours IP (BRAF V600E; A375.10 cells, BRAF V600E, 2 hours, inflection point): *** (<=1 μM)
8 | CCN(C)S(=O)(=O)Nc1ccc(F)c(C(=O)c2ccc3ncn([C@H]4COC5(CCN(C6CCC(c7cc8c(cc7F)c(N7CCC(=O)NC7=O)nn8C)CC6)CC5)C4)c(=O)c3c2)c1F (stereo partly drawn) [Compound 208, (3R)-8-[4-[3-(2,4-dioxohexahydropyrimidin-1-yl)-5-fluoro-1-methyl-indazol-6-yl]cyclohexyl]-3-[6-[3-[[ethyl(methyl)sulfamoyl]amino]-2,6-difluoro-benzoyl]-4-oxo-quinazolin-3-yl]-1-oxa-8-azaspiro[4.5]decane] | < 1000 nM | 50 to 90% | – | – | – | – | < 1000 nM | < 1000 nM | – | Emax (BRAF V600E; read-out: HiBiT-Degradation A375.10 BRAF 2 hours Emax, A375.10 cells, BRAF V600E, 2 hours, residual protein remaining): < 50%
9 | CC(C)S(=O)(=O)Nc1ccc(F)c(Oc2ccc3ncn(C4CC5(CCN(C6CCC(c7cc8c(cc7F)c(N7CCC(=O)NC7=O)nn8C)CC6)CC5)C4)c(=O)c3c2)c1C#N (single isomer, unassigned) [Compound 96, N-[2-cyano-3-[3-[7-[4-[3-(2,4-dioxohexahydropyrimidin-1-yl)-5-fluoro-1-methyl-indazol-6-yl]cyclohexyl]-7-azaspiro[3.5]nonan-2-yl]-4-oxo-quinazolin-6-yl]oxy-4-fluoro-phenyl]propane-2-sulfonamide] | – | – | – | – | – | < 1000 nM | < 1000 nM | < 1000 nM | *** (<=50%) | DC50 (BRAF V600E; A375.10 cells, BRAF V600E, 6 hours, inflection point, read-out: HiBiT-Degradation A375.10 BRAF 6 hours IP): < 1000 nM; DC50 (BRAF V600E; A375.10 cells, BRAF V600E, 6 hours, read-out: HiBiT-Degradation A375.10 BRAF 6 hours DC50): < 1000 nM; HiBiT-Degradation A375.10 BRAF 6 hours Emax (BRAF V600E; A375.10 cells, BRAF V600E, 6 hours, residual protein remaining): *** (<=50%); HiBiT-Degradation A375.10 BRAF 24 hours Emax (BRAF V600E; A375.10 cells, HiBiT, BRAF V600E, 24 hours): *** (<=50%); DC50 (BRAF V600E; A375.10 cells, HiBiT, BRAF V600E, 24 hours, read-out: HiBiT-Degradation A375.10 BRAF 24 hours DC50): < 1000 nM; DC50 (BRAF V600E; A375.10 cells, HiBiT, BRAF V600E, 24 hours, read-out: HiBiT-Degradation A375.10 BRAF 24 hours IP): < 1000 nM
10 | CCN(C)S(=O)(=O)Nc1ccc(F)c(Oc2ccc3ncn([C@H]4COC5(CCN(C6CC7(C6)CN(c6ccc(NC8CCC(=O)NC8=O)cc6F)C7)CC5)C4)c(=O)c3c2)c1F (stereo partly drawn) [Compound 193, (3R)-8-[2-[4-[(2,6-dioxo-3-piperidyl)amino]-2-fluoro-phenyl]-2-azaspiro[3.3]heptan-6-yl]-3-[6-[3-[[ethyl(methyl)sulfamoyl]amino]-2,6-difluoro-phenoxy]-4-oxo-quinazolin-3-yl]-1-oxa-8-azaspiro[4.5]decane] | 1000 to 10000 nM | 50 to 90% | 50 to 90% | > 10000 nM | < 1000 nM | – | – | – | – | –
